Data: patent US6566338B1, “Caspase inhibitors for the treatment and prevention of chemotherapy and radiation therapy induced cell death” (Cytovia, Inc., priority 1999, dated 2003)

How the values were obtained:
Jurkat T leukemia cells = assay: Propidium iodide uptake assay of apoptosis induced by chemotherapeutic agents or UV irradiation in Jurkat T cells; type: cell-based; conditions: 18 h
Description: Jurkat T leukemia cells were grown in RPMI 1640 media (Life Technologies, Inc.)+10% FCS (Sigma Chemical Company) in a 5% CO2 -95% humidity incubator at 37° C., and maintained at a cell density between 4 and 8×10^5 cells/ml. 1×10^6 cells were treated with Doxorubicin (1 μM) or Paclitaxel (20 μM) or UV irradiation (40 J/m^2) with or without the caspase inhibitor Z-VD-fmk (10 μM) and incubated at 37° C. for 18 h. As a control, cells were also incubated with DMSO. At 18 h cells were observed under phase contrast microscopy to visualize any morphological changes induced by the apoptotic stimuli. Cells were assessed for viability by a propidium iodide uptake assay. Briefly, 20 μl of propidium solution containing 100 μg/ml of propidium iodide was added to 200 μl of cells and transferred to 12×75mm polystyrene tubes and analyzed on a flow cytometer. All flow cytometry analyses were performed on FACScalibur (Becton Dickinson) using CellQuest analysis software.
FIGS. 1A-C depict photographs of Jurkat cells: FIG. 1A, DMSO treated control cells; FIG. 1B, cells treated with doxorubicin (1 μM); FIG. 1C, cells treated with doxorubicin (1 μM) and Z-VD-fmk (10 μM). FIG. 1D depicts a bar graph showing percentage of cell apoptosis as measured by a propidium iodide uptake assay: a, DMSO treated control cells; b, cells treated with doxorubicin; c, cells treated with doxorubicin and Z-VD-fmk.
FIGS. 2A-C depict photographs of Jurkat cells: FIG. 2A, DMSO treated control cells; FIG. 2B, cells treated with paclitaxel (20 μM); FIG. 2C, cells treated with paclitaxel (20 μM) and Z-VD-fink (10 μM). FIG. 2D depicts a bar graph showing percentage of cell apoptosis as measured by a propidium iodide uptake assay: a, DMSO treated control cells; b, cells treated with paclitaxel; c, cells treated with paclitaxel and Z-VD-fink.
FIGS. 3A-C depict photographs of Jurkat cells: FIG. 3A, DMSO treated control cells; FIG. 3B, cells treated with UV irradiation (40 J/m^2); FIG. 3C, cells treated with UV irradiation (40 J/m2) and Z-VD-fmk (10 μM). […]

[1] = test system: oral mucositis induced by acute irradiation in hamsters; assay: Radiation-induced oral mucositis in hamsters (acute radiation model, mucositis scoring); type: in vivo, Golden Syrian hamsters; conditions: for days with ulcerations (animal days with mucositis score of 3 or more) / daily mucositis scores, rank sum analysis vs vehicle control / reduction in ulceration vs vehicle control: day −2 to day 16; for days with ulcerations (animal days with mucositis score of 3 or more): vehicle control 56 days
Source text: A hamster model of chemotherapy-induced mucositis and, more recently, a model of radiation-induced mucositis has been developed (Sonis S. et al. Oral Surg. Oral. Med. Oral Pathol. 69:437-443 (1990) and Sonis S. et al. Cancer, 85:2103-13 (1999)). In the latter model, specific doses of acute radiation are targeted to the designated mucosa, with protection of other areas by a customized lead shield.
The objective of this study was to assess the effect of the topical and IP administration of (3R,S)-5-fluoro-3-[(2S)-3-methyl-1-oxo-2-(phenylcarbam-oyloxy)butyl]amino-4-oxo-pentanoic acid (a caspase inhibitor described in U.S. Application Ser. Nos. 60/151,077 and 60/158,373), in attenuating the development and progress of oral mucositis induced by acute irradiation in hamsters. Mucositis scores in hamsters receiving different doses of the compound were compared to those in hamsters receiving vehicle control, in order to detect statistically significant differences in the onset, duration or severity of the disorder.
Thirty-two (32) hamsters were randomly divided into four treatment groups with eight (8) animals per group. Each group was assigned a different treatment as follows:
Group 1: Vehicle control—topical vehicle control, tid (3 times daily), day −2 to day 16.
Group 2: Test compound at 20 mg/kg, IP once per day, day −2 to day 16.
Group 3: Test compound at 0.36 mg/ml (0.2 ml), topical, tid, day −2 to day 16.
Group 4: Test compound at 0.072 mg/ml (0.2 ml), topical, tid, day −2 to day 16.
viii) Starting on day 6 and continuing every second day thereafter (days 8, 10, 12, 14, 16, 18, 20, 22, 24, 26 & 28), each animal was photographed and evaluated for mucositis scoring.
dose of radiation (35 Gy/dose) was administered to all animals on Day 0. Radiation was generated with a 250 kilovolt potential (15-mA) source at a focal distance of 50 cm, hardened with a 0.35 mm Cu filtration system. Irradiation targeted the left buccal pouch mucosa at a rate of 121.5 cGy/minute. Prior to irradiation, animals were anesthetized with an intraperitoneal injection of sodium pentobarbital (80 mg/kg). The left buccal pouch was everted, fixed and isolated using a lead shield.
(§1) Topical dosing of animals was done three times per day. For topical treatments, a needleless tuberculin syringe, containing 0.2 ml of the test compound in 0.05M Tris (pH 8.0), was inserted into the left cheek pouch and the drug deposited into the pouch. Intraperitoneal injections of the compound were done once a day at a dose of 20 mg/kg and a drug concentration of 3-6 mg/ml in 0.05M Tris (pH 8.0). Dosing began on day −2 for all groups. In all groups treatment continued until day 16.
Mucositis Evaluation The mucositis score, weight change and survival were measured as outcomes in this study. For the evaluation of mucositis, the animals were anesthetized with inhalation anesthetics, and the left pouch everted. Mucositis was scored visually by comparison to a validated photographic scale, ranging from 0 for normal, to 5 for severe ulceration (clinical scoring). In descriptive terms, this scale is defined as follows: […]
A score of 1-2 is considered to represent a mild stage of the disease, whereas a score of 3-5 is considered to indicate moderate to severe mucositis. Following visual scoring, a photograph was taken of each animal's mucosa using a standardized technique. At the conclusion of the experiment, all films were developed and the photographs randomly numbered. At least two independent trained observers graded the photographs in blinded fashion using the above described scale (blinded scoring).

[2] = Weight change and survival in the hamster mucositis study; type: in vivo, Golden Syrian hamsters; conditions: at the doses used: 20 mg/kg IP; 0.36 and 0.072 mg/ml topical
Source text: i) Every day for the period of the study (day −2 to day 28), each animal was weighed and its survival recorded (to accommodate the schedules of the study site weights were taken every other day starting on day 17 and continuing to day 28).
Male Golden Syrian hamsters (Charles River Laboratories or Harlan Sprague Dawley), aged 5 to 6 weeks, with body weights of approximately 90 g at project commencement, were used. Animals were individually numbered using an ear punch and housed in small groups of 2 animals per cage. Animals were acclimatized for at least one week prior to project commencement. During this period, the animals were observed daily in order to reject animals that present poor condition.
as §1, with “Dosing began on day −2 for all groups. In all groups treatment continued until day 16.” left out
Mucositis Evaluation The mucositis score, weight change and survival were measured as outcomes in this study. […] Mucositis was scored visually by comparison to a validated photographic scale, ranging from 0 for normal, to 5 for severe ulceration (clinical scoring). […]

Row | Structure (SMILES) | doxorubicin induced cell death in Jurkat cells (Jurkat T leukemia cells; Doxorubicin 1 μM, Z-VD-fmk 10 μM, FIGS. 1A-D) | paclitaxel induced cell death in Jurkat cells (Jurkat T leukemia cells; Paclitaxel 20 μM, Z-VD-fmk 10 μM, FIGS. 2A-D) | UV irradiation induced cell death in Jurkat cells (Jurkat T leukemia cells; UV irradiation 40 J/m^2, Z-VD-fmk 10 μM, FIGS. 3A-D) | days with ulcerations (animal days with mucositis score of 3 or more) ([1]; 0.072 mg/ml (0.2 ml) topical tid) [days] | daily mucositis scores, rank sum analysis vs vehicle control ([1]; 0.072 mg/ml topical tid) | reduction in ulceration vs vehicle control ([1]; 0.072 mg/ml topical tid, p=0.061, not significant) [%] | days with ulcerations (animal days with mucositis score of 3 or more) ([1]; 0.36 mg/ml (0.2 ml) topical tid) [days] | daily mucositis scores, rank sum analysis vs vehicle control ([1]; 0.36 mg/ml topical tid) | reduction in ulceration vs vehicle control ([1]; 0.36 mg/ml topical tid, p<0.001) [%] | daily mucositis scores, rank sum analysis vs vehicle control ([1]; 20 mg/kg IP once per day) | reduction in ulceration vs vehicle control ([1]; 20 mg/kg IP once per day, p=0.068, not significant) [%] | days with ulcerations (animal days with mucositis score of 3 or more) ([1]; 20 mg/kg IP once per day) [days] | onset of ulceration ([1]; day 0 to day 16, all treatment groups) | systemic toxicity (mortality due to the treatment) [2]
1 | CC(C)[C@H](NC(=O)OCc1ccccc1)C(=O)NC(CC(=O)O)C(=O)CF (some centres unmarked) [Z-VD-fmk] | blocks doxorubicin induced cell death | blocks paclitaxel induced cell death | blocks UV irradiation induced cell death |  |  |  |  |  |  |  |  |  |  | 
2 | CC(C)[C@H](OC(=O)Nc1ccccc1)C(=O)NC(CC(=O)O)C(=O)CF (stereo partly drawn) [test compound, (3R,S)-5-Fluoro-3-[(2S)-3-methyl-1-oxo-2-(phenylcarbamoyloxy)butyl]amino-4-oxo-pentanoic Acid] |  |  |  | 42 | Significance was achieved only on day 18 | 25 | 27 | significant reduction of mucositis on days 18, 20, 22 & 26 | 51.8 | significant reduction in mucositis severity on days 20 and 22 | 24.8 | 39 | no apparent reduction in the onset of ulceration | no systemic toxicity
